Experimental data from patent publication US12643891B2, “SPAK/OSR inhibitors and methods of using same” (YALE UNIVERSITY, priority 2019, dated 2026).

Assays:
SPAK [1] = molecular target: T1, SPAK (Homo sapiens, UniProt Q9UEW8); assay: In vitro SPAK ELISA assay monitoring NKCC1 phosphorylation (T^PNKCC1 antibody); type: biochemical; conditions: on target activity in vitro; read-out: IC50 In vitro
T1 construct: GST (N, cleaved yes); made in house; host or cells: E. coli EcAR7 with Sep-OTS

GBM612 cells = assay: On target activity in GBM612 cells (Western blot); type: cell-based, human; conditions: on target activity in GBM cells
SPAK [2] = molecular target: T1, SPAK; assay: In vitro SPAK ELISA assay monitoring NKCC1 phosphorylation (T^PNKCC1 antibody); type: biochemical; conditions: analogues of (6a)
Protocol: The GlaxoSmithKline published kinase inhibitor set, PKIS (Dranchak, et al., 2013, Plos One 8), was used to evaluate potential SPAK drug inhibitor candidates. The pilot inhibitor screen tested the capability of 320 compounds to inhibit the kinase activity of purified co-expressed SP382 WNK1 (1-661)/WT SPAK using an ELISA based screen monitoring a reduction in NKCC1 phosphorylation with the NKCC1 phospho-specific antibody, T^PNKCC1. 10 nL of each inhibitor compound (final concentration 20 μM) or DMSO vehicle controls were added to dry 384 well-flat bottom low volume non-binding assay plates (Corning) using an Echo 550 Acoustic dispenser (Labcyte). […] The assay plates were centrifuged at 200 g for 1 min, then incubated at RT for 30 min. Following inhibitor incubation, the kinase reaction was initiated with 1 μL of 50 μM ATP (final concentration 10 uM) or 1 μL of Kinase reaction buffer for negative controls and reacted for 1 hr at 37° C. The reaction was then quenched with 5 μL Kinase Stop buffer (100 mM Tris pH 8, 300 mM NaCl, 40 mM EDTA) and incubated for 1 min with shaking at 450 rpm. 2 μL of each quenched reaction was added to 18 μL TBS (50 mM Tris pH 8, 150 mM NaCl) in white 384-well Nunc Maxisorp plates (Thermo Scientific) using a PlateMate Plus (Thermo Scientific). The plate was shaken for 1 min at 450 rpm, sealed and incubated at 4° C. overnight to allow the protein contents of the reaction to bind to the Maxisorp plate. The next morning the solution was removed, and the plates were then subjected to 3 washes in TBST (50 mM Tris pH 7.5, 150 mM NaCl. 0.05% Tween 20) for 5 min each wash with shaking at 400 rpm. The plates were blocked with TBST buffer containing 3% BSA (w/v) at RT for 2 hrs at RT. The blocking buffer was removed, and the plates were immunoblotted with 1:50,000 dilution of T^PNKCC1 in blocking buffer for 2 hrs at RT. The plates were then subjected to 3 washes in TBST for 5 min each wash with shaking at 400 rpm, followed by incubating with 1:10,000 dilution of 2° DAR-HPR antibody in blocking buffer for 1 hr at RT. The plates were washed again 3 times in TBST for 5 min each wash with shaking at 400 rpm. Signal was detected by SuperSignal ELISA Pico Chemiluminescent substrate (ThermoScientific), and read on an EnVision multi-label plate reader (Perkin-Elmer).

pancreatic cancer cells = assay: Pancreatic cancer cell migration in vitro; type: cell-based; conditions: FIG. 36
mDCT15 cells = assay: Cell volume of mDCT15 cells by microscopic imaging; type: cell-based, mouse; conditions: 40 μM, four-hour time course
Protocol: FIGS. 12A-12F illustrate the finding that (7a) depletes phosphorylated NKCC1 and reduces cell volume in mDCT15 cells. FIG. 12A: Structures of (7a) and analog (7b). FIG. 12B: In vitro dose-dependent inhibition comparing (7a) and (7b) evaluated by western blot using T^PNKCC1. FIG. 12C: Western blot analysis of NKCC1 phospho-depletion in mDCT15 cells under various conditions. FIG. 12D: mDCT15 cells were incubated with 40 μM (7a), 40 μM Cabozantinib (XL-184), or equivalent volume of DMSO vehicle for 1 hr, 2 hr, 3 hr, and 4 hr. NKCC1 phosphorylation was monitored using the T^PNKCC1 antibody and compared to total NKCC1. FIG. 12E: HEK 293 induced to express KCC were incubated with 40 μM (7a), 40 μM Cabozantinib (XL-184), or equivalent volume of DMSO vehicle for 1 hr, and 2 hr time points. KCC phosphorylation was monitored using the T^PKCC antibody and compared to total KCC using C-Myc antibody. FIG. 12F: mDCT15 cells were incubated with 40 μM (7a), 40 μM Cabozantinib (XL-184), or equivalent volume of DMSO vehicle for a 1 hr, 2 hr, 3 hr, and 4 hr time course. After incubation the cells were imaged using 20× bright field microscopy. 1 hr and 4 hr time points are shown.
FIG. 13 comprises images of mDCT15 cells incubated with 40 μM (7a) 40 μM, Cabozantinib (XL-184), or equivalent volume of DMSO vehicle for a 1 hr, 2 hr, 3 hr, and 4 hr time course (partially shown in FIG. 12F). […]

[3] = tested on: NKCC1 phosphorylation in mDCT15 cells; assay: NKCC1 phosphorylation in mDCT15 cell lysates (T^PNKCC1 immunoblot); type: cell-based, mouse; conditions: 40 μM, span of 4 hrs
Protocol: Mouse distal convoluted tubule (mDCT15) cells (Naguro, et al., 2012, Nature comm. 3:1285) were cultured in DMEM/Ham's F-12 media supplemented with 1% PSN and 5% FBS. Before each set of experiments 2×10^5 cells/well were plated in 24-well plates treated with 100 ug/mL poly-D-lysine and grown at 37° C. in 5% CO2 to ˜95% confluency. […] […] […] All media was removed and 100 μL of cell culture lysis buffer (100 mM Tris/HCl pH 7.4, 300 mM NaCl, 5 mM EDTA, 5 mM EGTA, 2 mM DTT, 10% glycerol, 2% triton X-100, Roche protease inhibitor, and phosphatase inhibitor cocktail 3 (Sigma-Aldrich St. Louis, MO)) was added to each well, transferred to a clean 1.5 mL Eppendorf tube, and incubated on ice for a minimum of 10 min. The cell lysates were centrifuged at 21,000 G for 10 min. The clarified lysate was stored at −80° C.
Protein samples were subjected to electrophoresis on polyacrylamide gels and transferred to PVDF membranes. The membranes were incubated overnight in TBST blocking buffer containing 5% milk (w/v) (for the antibodies raised in sheep) or 3% BSA (w/v) (for all other antibodies). […] Signal was detected by enhanced chemiluminescence (Bio-rad) imaged on a ChemiDoc™ XRS+ CCD camera.

Row | SMILES | IC50 (SPAK [1]) | Activity in GMB612, 0.2 μM (GBM612 cells) | Activity in GMB612, 2 μM (GBM612 cells) | SPAK inhibition (SPAK [2]) | pancreatic cancer cell migration (pancreatic cancer cells) | Cell volume change, mDCT15 cells (mDCT15 cells) | NKCC1 phosphorylation over time without osmotic triggers [3]
1 | COc1ccc(Nc2ncc(C#N)c(Nc3cccc4c3C(=O)NC4)n2)cc1N1CCN(C)CC1 [(6b)] | 0.05 µM | Yes | Yes | measurable SPAK inhibition | – | – | –
2 | COc1ccc(Nc2ncc(C#N)c(Nc3ccccc3-c3ncco3)n2)cc1N1CCN(C)CC1 [(6c), 2-((4-methoxy-3-(4-methylpiperazin-1-yl)phenyl)amino)-4-((2-(oxazol-2-yl)phenyl)amino)pyrimidine-5-carbonitrile] | 9 µM | No | No | – | – | – | –
3 | CNC(=O)c1ccccc1Nc1nc(Nc2ccc(OC)c(N3CCN(C)CC3)c2)ncc1C#N [(6d), 2-((5-cyano-2-((4-methoxy-3-(4-methylpiperazin-1-yl)phenyl)amino)pyrimidin-4-yl)amino)-N-methylbenzamide] | 5.2 µM | No | Yes | measurable SPAK inhibition | – | – | –
4 | CONC(=O)c1ccccc1Nc1nc(Nc2ccc(OC)c(N3CCN(C)CC3)c2)ncc1C#N [(6e), 2-((5-cyano-2-((4-methoxy-3-(4-methylpiperazin-1-yl)phenyl)amino)pyrimidin-4-yl)amino)-N-methoxybenzamide] | 2.6 µM | No | Yes | measurable SPAK inhibition | – | – | –
5 | COc1ccc(Nc2ncc(C#N)c(Nc3ccccc3-c3nnn[nH]3)n2)cc1N1CCN(C)CC1 [(6f), 4-((2-(1H-tetrazol-5-yl)phenyl)amino)-2-((4-methoxy-3-(4-methylpiperazin-1-yl)phenyl)amino)pyrimidine-5-carbonitrile] | 3.5 µM | No | Yes | measurable SPAK inhibition | – | – | –
6 | COc1ccc(Nc2ncc(C#N)c(Nc3ccccc3-c3nc[nH]n3)n2)cc1N1CCN(C)CC1 [(6g), 4-((2-(1H-1,2,4-triazol-3-yl)phenyl)amino)-2-((4-methoxy-3-(4-methylpiperazin-1-yl)phenyl)amino)pyrimidine-5-carbonitrile] | 12 µM | No | No | – | – | – | –
7 | Nc1ccn([C@@H]2O[C@H](CO)[C@@H](O)C2(F)F)c(=O)n1 [Gemcitabine, reference compound] | – | – | – | – | does not | – | –
8 | COc1cc2nccc(Oc3ccc(NC(=O)C4(C(=O)Nc5ccc(F)cc5)CC4)cc3)c2cc1OC [XL-184, Cabozantinib malate] | – | – | – | – | – | neither XL-184 nor Vehicle had any detectable change | no discernable effect on NKCC1 phosphorylation
